# Experimental data from patent publication US20100234348A1, “COMPOSITIONS AND METHODS FOR POTENTIATING ANTIBIOTIC ACTIVITY” (TRUSTEES OF BOSTON UNIVERSITY, priority 2006, published 2010).
# Test system: quinolone resistant strain laboratory S7
# Experiment: Growth of quinolone resistant strain S7 with ciprofloxacin and CB101 forms
# Assay type: cell-based
# Settings: Staphylococcus
# Method: The quinolone resistant strain laboratory S7 was tested for growth in the presence of ciprofloxacin at 0.5 μg/mL (MIC at 1 μg/mL) with 20 μg/mL of CB101 (racemic mixture), the (+) enantiomeric form of CB101 or the (−) enantiomeric form of CB101.
smiles,measurement,value
O=C(O)c1cn(C2CC2)c2cc(N3CCNCC3)c(F)cc2c1=O [ciprofloxacin],MIC,1 mg/L
